# Laboratory results as given in publication PMC7756782, “Rational Design of Azastatin as a Potential ADC Payload with Reduced Bystander Killing” (Chemmedchem, 2020).
# Counter-ions that a name gives are not always drawn. Non-standard residues stand in square brackets, D forms with d. Residues, ends and D or L forms follow the SMILES beside them. Dolaproine = CO[C@@H]([C@@H]1CCCN1)[C@@H](C)C(=O)O; Dil = CC[C@H](C)[C@H](NC)[C@@H](CC(=O)O)OC; NMeV = CN[C@H](C(=O)O)C(C)C
# Key:
# [1] = test system: HepG2 cells; test: cells; type: cell-based, human; details: FMCA, 72 h incubation, 37 °C, 384-well, 1000 cells/well, mean and 95 % confidence interval, three independent experiments
# Description: (§1) Three fundamentally different cell lines were chosen for the assessment of cytotoxicity: HepG2 cells, which derive from a human hepatoblastoma; ^[43] HCT116 cells, a common model for the study of metastatic colorectal carcinoma;[ ^44 , ^45 ] and RPMI 8226 cells, which originate from multiple myeloma. ^[46]
# (§2) The cells, upon overnight cultivation, were treated with MMAE (5), MMAF (6), azastatin‐OMe (7), N‐ethyl azastatin‐OMe (28), N‐Cbz azastatin‐OMe (27) or doxorubicin[ ^47 , ^48 ] at concentrations ranging from 100 μM to 10 pM and after 72 hours of incubation, the survival index relative to control was determined by The Fluorometric Microculture Cytotoxicity Assay (FMCA). ^[49] Based upon the concentration dependent proportion of surviving cells, the half maximal inhibitory concentration (IC50) of each compound was calculated (see Table 1).
# (§3) MMAE and MMAF were purchased from Combi‐Blocks (US). Doxorubicin hydrochloride was obtained from Sigma‐Aldrich/Merck (Germany). HepG2 cells (human hepatocellular carcinoma cells, ATCC), were grown in Eagle's Minimum Essential Medium (ATCC). RPMI 8226 (multiple myeloma cells, ATCC) were grown in complete RPMI medium (ATCC). HCT116 cells (colon carcinoma cells, Anticancer Inc.) were cultured in McCoy′s 5 A Modified Medium (Sigma‐Aldrich). All media were supplemented with 10 % foetal bovine serum, penicillin/streptomycin (100 U/100 μg/mL) and 2 mM L‐glutamine. Cells were seeded in 384‐well assay plates at a density of 1000 cells/well. The cells were incubated over night at 37 °C and test compounds were added, followed incubation for an additional 72 h at 37 °C. The fraction of surviving cells was analysed by a fluorometric microculture cytotoxicity assay, based on hydrolysis of fluorescein diacetate to fluorescein by cells with intact plasma membranes, as recently described. ^[49] IC50‐values were calculated from three independent experiments (see SI, mean±SEM). All tested concentrations were assessed in multiple wells (n=2‐4) in each experiment. The IC50‐values were determined with nonlinear regression analysis using GraphPad Prism 8 Software Package (US).
# [2] = test system: HCT116 cells; test: cells; type: cell-based; details: FMCA, 72 h incubation, 37 °C, 384-well, 1000 cells/well, mean and 95 % confidence interval, three independent experiments
# Description: as §1, §2, §3
# [3] = test system: RPMI 8226 cells; test: cells; type: cell-based; details: FMCA, 72 h incubation, 37 °C, 384-well, 1000 cells/well, mean and 95 % confidence interval, three independent experiments
# Description: as §1, §2, §3
# [4] = test system: HepG2, HCT116 and RPMI 8226 cells; test: FMCA cytotoxicity, span over all three tested cell lines; type: cell-based; details: 72 h; for IC50: lowest to highest mean IC50 in HepG2, HCT116, RPMI 8226, read-out: IC50 range over the three cell lines
# Description: as §1, §2, §3
SMILES,IC50 [1] [nM],IC50 [2] [nM],IC50 [3] [nM],IC50 [4] [nM],"IC50 ([1]; Homo sapiens, HepG2) [nM]","IC50 ([2]; Homo sapiens, HCT-116) [nM]","IC50 ([3]; Homo sapiens, RPMI-8226) [nM]",fold less potent than MMAE (5) in each of the cell lines ([4]; ratio of IC50 values)
"CC[C@H](C)[C@@H]([C@@H](CC(=O)N1C[C@@H](N)C[C@H]1[C@H](OC)[C@@H](C)C(=O)N[C@@H](Cc1ccccc1)C(=O)OC)OC)N(C)C(=O)[C@@H](NC(=O)[C@H](C(C)C)N(C)C)C(C)C [Aza‐OMe, 7, Azastatin methyl ester]",20,170,9.8,9.8 to 170,,,,
"CC[C@H](C)[C@@H]([C@@H](CC(=O)N1C[C@@H](NC(=O)OCc2ccccc2)C[C@H]1[C@H](OC)[C@@H](C)C(=O)N[C@@H](Cc1ccccc1)C(=O)OC)OC)N(C)C(=O)[C@@H](NC(=O)[C@H](C(C)C)N(C)C)C(C)C [Cbz‐Aza‐OMe, 27, Cbz‐azastatin methyl ester]",0.13,3,0.15,0.13 to 3,,,,
"COc1cccc2c1C(=O)c1c(O)c3c(c(O)c1C2=O)C[C@@](O)(C(=O)CO)C[C@@H]3O[C@H]1C[C@H](N)[C@H](O)[C@H](C)O1 [Doxorubicin, Doxorubicin hydrochloride, reference compound]",,,,,400,440,49,
"CC[C@H](C)[C@@H]([C@@H](CC(=O)N1CCC[C@H]1[C@H](OC)[C@@H](C)C(=O)N[C@@H](Cc1ccccc1)C(=O)O)OC)N(C)C(=O)[C@@H](NC(=O)[C@@H](NC)C(C)C)C(C)C [MMAF, 6, monomethylauristatin F, reference compound] (H-[NMeV]V[Dil][Dolaproine]F-OH)",,,,,,,,more than 100 fold
"CCN[C@H]1C[C@@H]([C@H](OC)[C@@H](C)C(=O)N[C@@H](Cc2ccccc2)C(=O)OC)N(C(=O)C[C@@H](OC)[C@H]([C@@H](C)CC)N(C)C(=O)[C@@H](NC(=O)[C@H](C(C)C)N(C)C)C(C)C)C1 [N‐Et Aza‐OMe, 28, N‐ethyl azastatin methyl ester]",11,100,4.8,4.8 to 100,,,,
